Measured values reported in paper PMC10045663, “Synthesis, In Vitro Biological Evaluation of Antiproliferative and Neuroprotective Effects and In Silico Studies of Novel 16E-Arylidene-5α,6α-epoxyepiandrosterone Derivatives” (Biomedicines, 2023).
pIC50: −log10 of the molar value.

What was measured:
Type in all cases: cell-based
MCF-7 cells [1] = assay: Immunocytochemistry assay, Ki67 staining; conditions: 48 h
Method: MCF-7 cells were trypsinized and counted by the trypan-blue exclusion assay, and then cells were seeded with an initial density of 3 × 10^4 cells/mL in 24-well culture plates (Nunc, Apogent, Denmark) containing circular coverslips of 10 mm diameter. Following seeding (48 h), cells were treated with 1 and 10 µM concentrations of 5-FU, as positive controls, and steroid 19 for 48 h. Untreated cells were used as a negative control. After this period, photograph shots were acquired at an optical microscope coupled with a digital camera (Supplementary Material, S2). Subsequently, the medium was removed, and cells were fixed with 10% formalin (15 min, room temperature). After fixation, cells were washed three times with PBS, permeabilized, and blocked for non-specific binding sites for 1 h with 0.5% Triton X-100 and 6% BSA at room temperature. Cells were incubated at 4 °C with 30 μL/coverslip of primary antibody, rabbit polyclonal anti-Ki67 (1:50, Abcam Plc.), prepared in 0.3% BSA and 0.1% Triton X-100, overnight. Then, cells were washed three times with PBS and incubated for 1 h, at room temperature, with 30 μL/coverslip of a solution containing the secondary antibody, Alexa Fluor 488 donkey anti-rabbit (1:200, Life Technologies), and the nuclear marker Hoechst-33342 (1:500, Life Technologies) prepared in PBS. Lastly, the coverslips were washed three times with PBS, mounted on a drop of the fluoroshield mounting medium (Abcam, Plc.) on a microscope slide, and left to dry for 24 h. Photomicrographs were taken using an Axio Imager A1 microscope (Carl Zeiss, Göttingen, Germany) with the 40 × objective.

[2] = test system: PNT1A (normal prostate cells); assay: MTT cell proliferation assay, PNT1A cells; conditions: 72 h, non-tumoral cells, read-out: Estimated IC50, PNT1A
[3] = test system: N27 (rat dopaminergic neuronal cells); assay: MTT cell proliferation assay, N27 cells; conditions: 72 h, non-tumoral cells, read-out: Estimated IC50, N27
[4] = test system: MCF-7 cells (estrogen-responsive breast cancer cells); assay: MTT cell proliferation assay, MCF-7 cells; conditions: 72 h
MCF-7 cells [5] = assay: Nuclear area analysis with ImageJ (Hoechst 33342-stained nuclei); conditions: MCF-7, 1 and 10 µM, 48 h
Description: The nuclear measurements were achieved by converting 16-bit photomicrographs of Hoechst 33342-stained nuclei in different studied conditions into 8-bit images. Then, these imagens were autothresholded to binary photos using the default “Make binary” function of ImageJ (v. 1.49) software (NIH Image, Bethesda, MD, USA). Cell nuclei that are touching were separated and fragments were discarded based on area through “Analyze Particle” function. This function also provides several other information, such as nuclear area (NA), circumference, and form factor [26]. Furthermore, the “Nearest Neighbor Distance” (NND) was determined. This function allows measuring the distance between each cell nucleus and the nearest ones, providing information about cell distribution.

## (E)-16-(2,3-Dichlorobenzylidene)-3-hydroxy-5α ,6α -epoxy-10,13-dimethyl-1,3,4,7,8,9,10,11,12,13,15,16-dodecahydro-2H-cyclopenta[α ]phenanthren-17(14H)-one [Compound 19]
MCF-7 cells [1]; MCF-7, 1 µM
  Ki67-positive cells relative to control: none of the compounds significantly affected
MCF-7 cells [1]; MCF-7, 10 µM
  Ki67-positive cells relative to control: statistically significant decrease
[2]
  pIC50: 4.89
[3]
  pIC50: 4.88
[4]; MCF-7, 10 µM
  decrease in cell proliferation: around 75%
[4]; MCF-7, 50 µM
  cell proliferation relative to the control: ~0%
  decrease in cell proliferation: ~100%
[4]; MTT, tumoral cells, read-out: Estimated IC50, MCF-7
  pIC50: 5.46
MCF-7 cells [5]
  nuclear area (NA) relative to the control: decreased significantly
